# From patent US20210040118A1, “IMMUNOMODULATORS, COMPOSITIONS AND METHODS THEREOF” (BETTA PHARMACEUTICALS CO., LTD, priority 2018, published 2021)
# Biological target: T1, PD-1/PD-L1 (Homo sapiens, UniProt Q9NZQ7)
# T1 construct: Recombinant human PD-L1 protein (19-238) with a His-tag at the C-terminus; purchased AcroBiosystems PD1-H5229 (PD-L1); PD1-H5257 (PD-1)
# Test: PD-1/PD-L1 homogenous time-resolved fluorescence (HTRF) binding assay
# Conditions: recombinant human PD-L1 (19-238) His-tag / human PD-1 (25-167) Fc tag, class symbols
# Method in brief: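 Inhibitors were preincubated 40 min at 25°C with 10 nM His-tagged human PD-L1 (19-238) and 3 nM Fc-tagged human PD-1 (25-167) in PBS pH 7.4 containing Tween-20, BSA and 1% DMSO. After 60 min with europium anti-human IgG and anti-His-APC, 665/620 nm signal ratio gave IC50 via percent-control fit.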
# T1 sequence (Q9NZQ7 19-238): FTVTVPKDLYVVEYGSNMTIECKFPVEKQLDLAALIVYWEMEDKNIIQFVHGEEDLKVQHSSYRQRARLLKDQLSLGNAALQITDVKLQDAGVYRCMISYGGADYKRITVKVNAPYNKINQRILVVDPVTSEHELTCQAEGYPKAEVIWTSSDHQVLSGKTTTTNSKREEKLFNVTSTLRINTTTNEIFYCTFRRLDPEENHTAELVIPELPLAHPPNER
row,Structure (SMILES),IC50
1,"Cc1nc(C(=O)Nc2cccc(-c3cccc4c3CCN4C(=O)c3nc(C)c(CN[C@H](C(=O)O)C4CCOCC4)s3)c2Cl)sc1CN[C@H](C(=O)O)C1CCOCC1 [Example 61, (S)-2-((2-(3-(1-(5-(((S)-carboxy(tetrahydro-2H-pyran-4-yl)methylamino)methyl)-4-methylthiazole-2-carbonyl)indolin-4-yl)-2-chlorophenylcarbamoyl)-4-methylthiazol-5-yl)methylamino)-2-(tetrahydro-2H-pyran-4-yl)acetic acid]",< 25 nM
2,"Cc1nc(C(=O)Nc2cccc(-c3cccc4c3CCN4C(=O)c3nc(C)c(CN4CCCC[C@H]4C(=O)O)s3)c2)sc1CN1CCCC[C@H]1C(=O)O [Example 62, (S)-1-((2-(3-(1-(5-(((S)-2-carboxypiperidin-1-yl)methyl)-4-methylthiazole-2-carbonyl)indolin-4-yl)phenylcarbamoyl)-4-methylthiazol-5-yl)methyl)piperidine-2-carboxylic acid]",< 25 nM
3,"Cc1nc(C(=O)Nc2cccc(-c3cccc4c3CCN4C(=O)c3nc(C)c(CN[C@H](C(=O)O)C4CCOCC4)s3)c2)sc1CN[C@H](C(=O)O)C1CCOCC1 [Example 63, (S)-2-((2-(3-(1-(5-(((S)-carboxy(tetrahydro-2H-pyran-4-yl)methylamino)methyl)-4-methylthiazole-2-carbonyl)indolin-4-yl)phenylcarbamoyl)-4-methylthiazol-5-yl)methylamino)-2-(tetrahydro-2H-pyran-4-yl)acetic acid]",< 25 nM
4,"Cc1c(NC(=O)c2nc3c(n2C)CNCC3)cccc1-c1cccc(NC(=O)c2nc3c(n2C)CNCC3)c1C [Example 64, N,N′-(2,2′-dimethylbiphenyl-3,3′-diyl)bis(3-methyl-4,5,6,7-tetrahydro-3H-imidazo[4,5-c]pyridine-2-carboxamide)]",< 25 nM
5,"O=C(O)CN1CCc2nc(C(=O)Nc3cccc(-c4cccc(NC(=O)c5nc6c(s5)CN(CC(=O)O)CC6)c4Cl)c3Cl)sc2C1 [Example 65, 2,2′-((((2,2′-dichloro-[1,1′-biphenyl]-3,3′-diyl)bis(azanediyl))bis(carbonyl))bis(6,7-dihydrothiazolo[5,4-c]pyridine-2,5(4H)-diyl))diacetic acid]",< 25 nM
6,"O=C(Nc1cccc(-c2cccc(NC(=O)c3ncc(CNCCO)s3)c2Cl)c1Cl)c1ncc(CNCCO)s1 [Example 66, N,N′-(2,2′-dichloro-[1,1′-biphenyl]-3,3′-diyl)bis(5-(((2-hydroxyethyl)amino)methyl)thiazole-2-carboxamide)]",< 25 nM
7,"O=C(Nc1cccc(-c2cccc(NC(=O)c3ncc(CN4C[C@H](O)C[C@H]4C(=O)O)s3)c2Cl)c1Cl)c1ncc(CN2C[C@H](O)C[C@H]2C(=O)O)s1 [Example 67, (2S,2'S,4R,4′R)-1,1′-(((((2,2′-dichloro-[1,1′-biphenyl]-3,3′-diyl)bis(azanediyl))bis(carbonyl))bis(thiazole-2,5-diyl))bis(methylene))bis(4-hydroxypyrrolidine-2-carboxylic acid)]",< 25 nM
8,"O=C(Nc1cccc(-c2cccc(NC(=O)c3ncc(CNCC(F)(F)F)s3)c2Cl)c1Cl)c1ncc(CNCC(F)(F)F)s1 [Example 68, N,N′-(2,2′-dichloro-[1,1′-biphenyl]-3,3′-diyl)bis(5-(((2,2,2-trifluoroethyl)amino)methyl)thiazole-2-carboxamide)]",< 25 nM
9,"CC(C)[C@H](NCc1cnc(C(=O)Nc2cccc(-c3cccc(NC(=O)c4ncc(CN[C@H](C(=O)O)C(C)C)s4)c3Cl)c2Cl)s1)C(=O)O [Example 69, ((2-((3′-(5-((((S)-1-carboxy-2-methylpropyl)amino)methyl)thiazole-2-carboxamido)-2,2′-dichloro-[1,1′-biphenyl]-3-yl)carbamoyl)thiazol-5-yl)methyl)-L-valine]",< 25 nM
10,"O=C(c1ncc(CNCCO)s1)N1CCc2c(-c3cccc4c3CCN4C(=O)c3ncc(CNCCO)s3)cccc21 [Example 70, [4,4′-biindoline]-1,1′-diylbis((5-(((2-hydroxyethyl)amino)methyl)thiazol-2-yl)methanone)]",< 25 nM
11,"O=C(Nc1cccc(-c2cccc(NC(=O)c3ncc(CN[C@H](C(=O)O)C4CCOCC4)s3)c2Cl)c1Cl)c1ncc(CN[C@H](C(=O)O)C2CCOCC2)s1 [Example 71, (2S,2'S)-2,2′-((((((2,2′-dichloro-[1,1′-biphenyl]-3,3′-diyl)bis(azanediyl))bis(carbonyl))bis(thiazole-2,5-diyl))bis(methylene))bis(azanediyl))bis(2-(tetrahydro-2H-pyran-4-yl)acetic acid)]",< 25 nM
12,"Cc1c(NC(=O)c2ncc(CN3CCCC[C@H]3C(=O)O)s2)cccc1-c1cccc2c1CCN2C(=O)c1ncc(CN2CCCC[C@H]2C(=O)O)s1 [Example 72, (S)-1-((2-((3-(1-(5-(((S)-2-carboxypiperidin-1-yl)methyl)thiazole-2-carbonyl)indolin-4-yl)-2-methylphenyl)carbamoyl)thiazol-5-yl)methyl)piperidine-2-carboxylic acid]",< 25 nM
13,"Cc1c(NC(=O)c2nnc(CNCCO)s2)cccc1-c1cccc(NC(=O)c2nnc(CNCCO)s2)c1C [Example 73, N,N′-(2,2′-dimethyl-[1,1′-biphenyl]-3,3′-diyl)bis(5-(((2-hydroxyethyl)amino)methyl)-1,3,4-thiadiazole-2-carboxamide)]",< 25 nM
14,"N#Cc1c(NC(=O)c2nc3c(s2)CNCC3)cccc1-c1cccc(NC(=O)c2nc3c(s2)CNCC3)c1C#N [Example 74, N,N′-(2,2′-dicyano-[1,1′-biphenyl]-3,3′-diyl)bis(4,5,6,7-tetrahydrothiazolo[5,4-c]pyridine-2-carboxamide)]",< 25 nM
15,"Cc1c(NC(=O)c2nc3c(s2)CN(Cc2ccc(Cl)c(Cl)c2)CC3)cccc1-c1cccc(NC(=O)c2nc3c(s2)CN(Cc2ccc(Cl)c(Cl)c2)CC3)c1C [Example 75, N,N′-(2,2′-dimethyl-[1,1′-biphenyl]-3,3′-diyl)bis(5-(3,4-dichlorobenzyl)-4,5,6,7-tetrahydrothiazolo[5,4-c]pyridine-2-carboxamide)]",100 to 200 nM
16,"Cc1c(NC(=O)c2nc3c(s2)CN(CC(C)(C)CO)CC3)cccc1-c1cccc(NC(=O)c2nc3c(s2)CN(CC(C)(C)CO)CC3)c1C [Example 76, N,N′-(2,2′-dimethyl-[1,1′-biphenyl]-3,3′-diyl)bis(5-(3-hydroxy-2,2-dimethylpropyl)-4,5,6,7-tetrahydrothiazolo[5,4-c]pyridine-2-carboxamide)]",< 25 nM

# Next, values leading:
row,IC50,Structure (SMILES)
1,25 to 100 nM,"Cc1c(NC(=O)c2nc3c(s2)CN(C(C)C)CC3)cccc1-c1cccc(NC(=O)c2nc3c(s2)CN(C(C)C)CC3)c1C [Example 77, N,N′-(2,2′-dimethyl-[1,1′-biphenyl]-3,3′-diyl)bis(5-isopropyl-4,5,6,7-tetrahydrothiazolo[5,4-c]pyridine-2-carboxamide)]"
2,< 25 nM,"Cc1c(NC(=O)c2nc3c(s2)CN(CCCC(=O)O)CC3)cccc1-c1cccc(NC(=O)c2nc3c(s2)CN(CCCC(=O)O)CC3)c1C [Example 78, 4,4′-((((2,2′-dimethyl-[1,1′-biphenyl]-3,3′-diyl)bis(azanediyl))bis(carbonyl))bis(6,7-dihydrothiazolo[5,4-c]pyridine-2,5(4H)-diyl))dibutyric acid]"
3,< 25 nM,"Cc1c(NC(=O)c2nc3c(s2)CN(C(C)C(=O)O)CC3)cccc1-c1cccc(NC(=O)c2nc3c(s2)CN(C(C)C(=O)O)CC3)c1C (stereo not shown) [Example 79, 2,2′-((((2,2′-dimethyl-[1,1′-biphenyl]-3,3′-diyl)bis(azanediyl))bis(carbonyl))bis(6,7-dihydrothiazolo[5,4-c]pyridine-2,5(4H)-diyl))dipropionic acid]"
4,< 25 nM,"Cc1c(NC(=O)c2nc3c(s2)CN(CC#N)CC3)cccc1-c1cccc(NC(=O)c2nc3c(s2)CN(CC#N)CC3)c1C [Example 80, N,N′-(2,2′-dimethyl-[1,1′-biphenyl]-3,3′-diyl)bis(5-(cyanomethyl)-4,5,6,7-tetrahydrothiazolo[5,4-c]pyridine-2-carboxamide)]"
5,< 25 nM,"Cc1c(NC(=O)c2nc3c(s2)CN(CCCN2CCOCC2)CC3)cccc1-c1cccc(NC(=O)c2nc3c(s2)CN(CCCN2CCOCC2)CC3)c1C [Example 81, N,N′-(2,2′-dimethyl-[1,1′-biphenyl]-3,3′-diyl)bis(5-(3-morpholinopropyl)-4,5,6,7-tetrahydrothiazolo[5,4-c]pyridine-2-carboxamide)]"
6,< 25 nM,"Cc1c(NC(=O)c2nc3c(s2)CN(CCO)CC3)cccc1-c1cccc(NC(=O)c2nc3c(s2)CN(CCO)CC3)c1C [Example 82, N,N′-(2,2′-dimethyl-[1,1′-biphenyl]-3,3′-diyl)bis(5-(2-hydroxyethyl)-4,5,6,7-tetrahydrothiazolo[5,4-c]pyridine-2-carboxamide)]"
7,< 25 nM,"CN1CCc2nc(C(=O)N3CCc4c(-c5cccc6c5CCN6C(=O)c5nc6c(s5)CN(C)CC6)cccc43)sc2C1 [Example 83, [4,4′-biindoline]-1,1′-diylbis((5-methyl-4,5,6,7-tetrahydrothiazolo[5,4-c]pyridin-2-yl)methanone)]"
8,25 to 100 nM,"O=C(c1nc2c(s1)CN(CC(F)(F)F)CC2)N1CCc2c(-c3cccc4c3CCN4C(=O)c3nc4c(s3)CN(CC(F)(F)F)CC4)cccc21 [Example 84, [4,4′-biindoline]-1,1′-diylbis((5-(2,2,2-trifluoroethyl)-4,5,6,7-tetrahydrothiazolo[5,4-c]pyridin-2-yl)methanone)]"
9,25 to 100 nM,"O=C(c1nc2c(s1)CN(CC(F)F)CC2)N1CCc2c(-c3cccc4c3CCN4C(=O)c3nc4c(s3)CN(CC(F)F)CC4)cccc21 [Example 85, [4,4′-biindoline]-1,1′-diylbis((5-(2,2-difluoroethyl)-4,5,6,7-tetrahydrothiazolo[5,4-c]pyridin-2-yl)methanone)]"
